According to PMC7736581, “Activation of the IRE1 RNase through remodeling of the kinase front pocket by ATP-competitive ligands” (Nature Communications, 2020):

Assays:
Experiment in all cases: biochemical
Design in all cases: Invitrogen kinase panel: Z'Lyte activity (ATP at Km) or LanthaScreen competitive ATP-site binding, percent inhibition
[1] = molecular target: T1, CK2_alpha1 (Homo sapiens, UniProt P68400)
T1 construct: gene CSNK2A1

[2] = molecular target: T2, PKC_theta (Homo sapiens, UniProt Q04759)
T2 construct: gene PRKCQ

[3] = molecular target: DYRK4 (Homo sapiens, UniProt Q9NR20)
[4] = molecular target: PAK3 (Homo sapiens, UniProt O75914)
[5] = molecular target: SIK2 (Homo sapiens, UniProt Q9H0K1)
[6] = molecular target: CSK (Homo sapiens, UniProt P41240)
[7] = molecular target: CDK8/cyclinC (Homo sapiens, UniProt P49336)
[8] = molecular target: WEE1 (Homo sapiens, UniProt P30291)
[9] = molecular target: DYRK1A (Homo sapiens, UniProt Q13627)
[10] = molecular target: ACVR1B (Homo sapiens, UniProt P36896)
[11] = molecular target: T3, MSSK1 (Homo sapiens, UniProt Q9UPE1)
T3 construct: gene SRPK3

[12] = molecular target: Flt1 (Homo sapiens, UniProt P17948)
[13] = molecular target: T4, CK1_epsilon1 (Homo sapiens, UniProt P49674)
T4 construct: gene CSNK1E; epsilon 1

[14] = molecular target: SRPK1 (Homo sapiens, UniProt Q96SB4)
[15] = molecular target: FGFR4 (Homo sapiens, UniProt P22455)
[16] = molecular target: TXK (Homo sapiens, UniProt P42681)
[17] = molecular target: T5, p38_beta (Homo sapiens, UniProt Q15759)
T5 construct: gene MAPK11

[18] = molecular target: TNK2 (Homo sapiens, UniProt Q07912)
[19] = molecular target: NEK9 (Homo sapiens, UniProt Q8TD19)
[20] = molecular target: MARK1 (Homo sapiens, UniProt Q9P0L2)
[21] = molecular target: LIMK1 (Homo sapiens, UniProt P53667)
[22] = molecular target: T6, MRCK_alpha (Homo sapiens, UniProt Q5VT25)
T6 construct: gene CDC42BPA

[23] = molecular target: T7, DNA-PK (Homo sapiens, UniProt P78527)
T7 construct: gene PRKDC

[24] = molecular target: T8, MEKK2 (Homo sapiens, UniProt Q9Y2U5)
T8 construct: gene MAP3K2

[25] = molecular target: MAPKAPK2 (Homo sapiens, UniProt P49137)

T8 sequence (Q9Y2U5 whole entry): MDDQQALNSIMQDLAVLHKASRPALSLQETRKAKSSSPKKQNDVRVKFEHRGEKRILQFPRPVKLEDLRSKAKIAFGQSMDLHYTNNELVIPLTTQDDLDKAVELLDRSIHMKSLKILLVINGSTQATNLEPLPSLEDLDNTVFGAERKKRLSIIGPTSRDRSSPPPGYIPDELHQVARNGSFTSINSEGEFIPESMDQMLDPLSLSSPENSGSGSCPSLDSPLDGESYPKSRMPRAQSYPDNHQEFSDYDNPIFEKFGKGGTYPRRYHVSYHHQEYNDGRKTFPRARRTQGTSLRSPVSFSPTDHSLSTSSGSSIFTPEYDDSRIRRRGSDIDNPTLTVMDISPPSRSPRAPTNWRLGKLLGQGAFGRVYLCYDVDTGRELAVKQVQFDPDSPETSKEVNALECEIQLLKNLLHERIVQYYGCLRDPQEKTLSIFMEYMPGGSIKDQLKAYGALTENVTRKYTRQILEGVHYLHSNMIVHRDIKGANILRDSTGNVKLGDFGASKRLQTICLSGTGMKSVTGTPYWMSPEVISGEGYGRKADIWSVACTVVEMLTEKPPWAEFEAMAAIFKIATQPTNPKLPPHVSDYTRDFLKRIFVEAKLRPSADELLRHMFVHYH
Sequence of CSK (P41240 whole entry): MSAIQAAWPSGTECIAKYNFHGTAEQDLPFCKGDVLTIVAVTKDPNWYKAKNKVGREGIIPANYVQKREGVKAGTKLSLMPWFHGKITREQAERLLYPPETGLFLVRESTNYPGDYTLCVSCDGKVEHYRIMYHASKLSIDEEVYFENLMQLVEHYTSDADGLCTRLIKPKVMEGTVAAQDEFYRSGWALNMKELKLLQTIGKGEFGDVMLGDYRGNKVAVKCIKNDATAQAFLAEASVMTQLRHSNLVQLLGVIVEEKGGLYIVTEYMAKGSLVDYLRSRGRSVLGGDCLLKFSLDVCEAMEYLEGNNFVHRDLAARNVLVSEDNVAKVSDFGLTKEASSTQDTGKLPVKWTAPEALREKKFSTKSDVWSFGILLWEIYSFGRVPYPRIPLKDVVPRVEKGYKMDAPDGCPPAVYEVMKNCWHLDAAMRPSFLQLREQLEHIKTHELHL
T3 sequence (Q9UPE1 whole entry): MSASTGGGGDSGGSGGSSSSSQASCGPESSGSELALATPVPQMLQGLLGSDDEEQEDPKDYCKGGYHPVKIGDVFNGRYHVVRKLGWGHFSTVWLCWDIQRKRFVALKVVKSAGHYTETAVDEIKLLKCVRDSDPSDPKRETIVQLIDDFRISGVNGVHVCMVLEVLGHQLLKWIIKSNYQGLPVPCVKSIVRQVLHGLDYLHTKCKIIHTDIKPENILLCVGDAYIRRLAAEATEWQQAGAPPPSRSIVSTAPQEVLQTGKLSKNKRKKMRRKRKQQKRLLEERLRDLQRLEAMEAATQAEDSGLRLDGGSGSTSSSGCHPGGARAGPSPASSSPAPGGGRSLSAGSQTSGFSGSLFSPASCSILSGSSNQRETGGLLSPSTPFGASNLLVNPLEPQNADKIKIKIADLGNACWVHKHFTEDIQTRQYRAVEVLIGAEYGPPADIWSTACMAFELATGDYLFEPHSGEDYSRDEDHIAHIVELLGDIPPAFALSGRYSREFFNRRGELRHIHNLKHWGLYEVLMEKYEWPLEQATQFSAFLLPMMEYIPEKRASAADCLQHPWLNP
T1 sequence (P68400 whole entry): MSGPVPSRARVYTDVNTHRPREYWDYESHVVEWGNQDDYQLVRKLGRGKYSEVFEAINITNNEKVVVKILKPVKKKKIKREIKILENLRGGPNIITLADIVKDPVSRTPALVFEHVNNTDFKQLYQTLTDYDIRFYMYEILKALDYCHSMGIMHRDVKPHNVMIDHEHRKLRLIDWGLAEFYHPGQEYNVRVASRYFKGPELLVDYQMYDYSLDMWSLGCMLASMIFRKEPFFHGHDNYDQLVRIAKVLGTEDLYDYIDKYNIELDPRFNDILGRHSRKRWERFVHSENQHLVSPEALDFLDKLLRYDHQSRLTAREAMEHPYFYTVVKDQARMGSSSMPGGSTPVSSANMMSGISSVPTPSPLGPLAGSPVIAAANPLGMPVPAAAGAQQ
T2 sequence (Q04759 whole entry): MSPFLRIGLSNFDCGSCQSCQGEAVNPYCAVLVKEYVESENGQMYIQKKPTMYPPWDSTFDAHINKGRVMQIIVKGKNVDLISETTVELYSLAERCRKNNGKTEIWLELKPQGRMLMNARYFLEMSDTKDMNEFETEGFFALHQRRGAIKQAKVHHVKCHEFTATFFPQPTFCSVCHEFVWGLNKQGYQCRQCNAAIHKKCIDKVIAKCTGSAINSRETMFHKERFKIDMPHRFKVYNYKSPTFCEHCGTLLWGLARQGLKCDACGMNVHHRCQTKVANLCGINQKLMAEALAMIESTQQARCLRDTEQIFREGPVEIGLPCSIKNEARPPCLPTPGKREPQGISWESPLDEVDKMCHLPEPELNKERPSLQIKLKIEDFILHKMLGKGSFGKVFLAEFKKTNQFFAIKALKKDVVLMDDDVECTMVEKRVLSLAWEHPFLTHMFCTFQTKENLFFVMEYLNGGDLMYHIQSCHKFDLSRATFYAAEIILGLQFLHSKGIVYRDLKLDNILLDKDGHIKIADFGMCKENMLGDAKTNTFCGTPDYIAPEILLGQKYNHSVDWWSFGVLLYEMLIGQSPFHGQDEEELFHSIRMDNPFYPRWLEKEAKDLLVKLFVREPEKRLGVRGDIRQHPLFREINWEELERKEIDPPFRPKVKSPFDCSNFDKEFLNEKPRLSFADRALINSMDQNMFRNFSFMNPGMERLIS
Sequence of DYRK4 (Q9NR20 whole entry): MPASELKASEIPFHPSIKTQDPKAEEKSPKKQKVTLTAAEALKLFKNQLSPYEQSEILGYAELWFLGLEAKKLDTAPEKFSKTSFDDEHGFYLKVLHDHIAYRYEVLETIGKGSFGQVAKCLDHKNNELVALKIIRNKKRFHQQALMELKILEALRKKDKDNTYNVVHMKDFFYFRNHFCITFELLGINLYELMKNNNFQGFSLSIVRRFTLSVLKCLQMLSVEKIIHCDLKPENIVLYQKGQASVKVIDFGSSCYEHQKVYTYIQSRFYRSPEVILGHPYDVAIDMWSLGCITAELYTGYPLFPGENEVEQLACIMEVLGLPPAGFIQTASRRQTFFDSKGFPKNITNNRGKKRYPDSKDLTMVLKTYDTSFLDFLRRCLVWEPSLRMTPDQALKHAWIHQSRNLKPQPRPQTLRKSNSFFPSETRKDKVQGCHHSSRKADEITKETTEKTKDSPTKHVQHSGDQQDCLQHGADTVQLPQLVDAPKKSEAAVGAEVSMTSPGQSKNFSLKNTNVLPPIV
Sequence of SIK2 (Q9H0K1 whole entry): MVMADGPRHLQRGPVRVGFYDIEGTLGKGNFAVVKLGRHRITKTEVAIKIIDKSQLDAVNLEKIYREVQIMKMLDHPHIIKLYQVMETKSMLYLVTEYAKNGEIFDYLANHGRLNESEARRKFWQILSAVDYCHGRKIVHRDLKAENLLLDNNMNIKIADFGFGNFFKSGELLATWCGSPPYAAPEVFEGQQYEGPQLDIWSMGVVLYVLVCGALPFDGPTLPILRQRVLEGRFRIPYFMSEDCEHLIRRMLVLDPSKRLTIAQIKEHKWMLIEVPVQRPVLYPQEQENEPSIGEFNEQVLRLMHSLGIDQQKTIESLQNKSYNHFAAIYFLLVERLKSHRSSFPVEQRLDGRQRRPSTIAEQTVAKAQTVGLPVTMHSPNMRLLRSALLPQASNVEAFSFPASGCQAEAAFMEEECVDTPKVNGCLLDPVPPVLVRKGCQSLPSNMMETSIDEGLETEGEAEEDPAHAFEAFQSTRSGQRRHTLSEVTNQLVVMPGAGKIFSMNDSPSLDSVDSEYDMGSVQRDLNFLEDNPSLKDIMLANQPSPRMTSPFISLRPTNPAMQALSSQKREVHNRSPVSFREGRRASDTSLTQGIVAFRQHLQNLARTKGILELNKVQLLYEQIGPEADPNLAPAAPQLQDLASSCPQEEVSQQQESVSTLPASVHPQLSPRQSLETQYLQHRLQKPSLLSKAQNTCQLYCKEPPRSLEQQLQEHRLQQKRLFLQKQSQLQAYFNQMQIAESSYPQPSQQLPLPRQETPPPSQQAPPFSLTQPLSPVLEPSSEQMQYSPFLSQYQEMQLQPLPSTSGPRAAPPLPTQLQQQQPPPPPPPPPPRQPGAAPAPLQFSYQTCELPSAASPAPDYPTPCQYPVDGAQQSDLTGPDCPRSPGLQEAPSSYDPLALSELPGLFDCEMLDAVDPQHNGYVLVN
T5 sequence (Q15759 whole entry): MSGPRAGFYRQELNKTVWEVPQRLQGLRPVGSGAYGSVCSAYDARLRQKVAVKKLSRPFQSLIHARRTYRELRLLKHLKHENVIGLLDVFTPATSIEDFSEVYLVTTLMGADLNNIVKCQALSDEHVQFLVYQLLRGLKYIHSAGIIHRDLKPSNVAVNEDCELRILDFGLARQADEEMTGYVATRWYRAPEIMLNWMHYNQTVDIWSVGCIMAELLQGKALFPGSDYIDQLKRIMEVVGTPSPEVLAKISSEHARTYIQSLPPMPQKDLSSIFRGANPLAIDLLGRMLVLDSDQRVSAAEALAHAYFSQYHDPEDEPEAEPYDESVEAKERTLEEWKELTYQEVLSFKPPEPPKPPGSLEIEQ
T4 sequence (P49674 whole entry): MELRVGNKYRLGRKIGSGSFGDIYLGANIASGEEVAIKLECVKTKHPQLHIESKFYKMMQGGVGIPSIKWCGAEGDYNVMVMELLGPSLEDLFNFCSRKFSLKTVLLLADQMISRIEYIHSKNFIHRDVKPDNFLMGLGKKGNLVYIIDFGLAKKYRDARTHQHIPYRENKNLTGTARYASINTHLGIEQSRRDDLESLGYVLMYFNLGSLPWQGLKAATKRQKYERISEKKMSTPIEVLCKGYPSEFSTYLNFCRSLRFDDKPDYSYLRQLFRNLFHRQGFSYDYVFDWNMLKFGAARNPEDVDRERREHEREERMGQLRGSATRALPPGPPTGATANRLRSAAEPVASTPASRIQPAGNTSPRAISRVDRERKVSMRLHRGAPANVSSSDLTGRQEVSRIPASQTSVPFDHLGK

Compound	inhibition at 1 µM [1] [%]	inhibition at 1 µM [2] [%]	inhibition at 1 µM [3] [%]	inhibition at 1 µM [4] [%]	inhibition at 1 µM [5] [%]	inhibition at 1 µM [6] [%]	inhibition at 1 µM [7] [%]	inhibition at 1 µM [8] [%]	inhibition at 1 µM [9] [%]	inhibition at 1 µM [10] [%]	inhibition at 1 µM [11] [%]	inhibition at 1 µM [12] [%]	inhibition at 1 µM [13] [%]	inhibition at 1 µM [14] [%]	inhibition at 1 µM [15] [%]	inhibition at 1 µM [16] [%]	inhibition at 1 µM [17] [%]	inhibition at 1 µM [18] [%]	inhibition at 1 µM [19] [%]	inhibition at 1 µM [20] [%]	also measured
CCOC(=O)Nc1cccc2c(Oc3ncccc3-c3ccnc(N[C@H]4CCCNC4)n3)c(C)ccc12 [G-1749]	0.5	1.5	2.5	6.5	-16.5	6	2.5	-5	4	3	-1.5	-1	37	6.5	7.5	2	100	1	-3	10	inhibition at 1 µM [21]: 4.5%; inhibition at 1 µM [22]: 4.5%; inhibition at 1 µM [23]: 6.5%; inhibition at 1 µM [24]: -0.5%; inhibition at 1 µM [25]: 7.5%
CC#CC(=O)Nc1cccc2c(Oc3ncccc3-c3ccnc(N[C@H]4CCCNC4)n3)c(C)ccc12 [G-7658]	0	0	1	5	6	5.5	2	-0.5	2.5	-0.5	7	-1.5	36	5	9	2	63.5	2	-0.5	9	inhibition at 1 µM [21]: 15%; inhibition at 1 µM [22]: 5%; inhibition at 1 µM [23]: 11%; inhibition at 1 µM [24]: 1%; inhibition at 1 µM [25]: 1%
